One test deals with T1, RARα (Homo sapiens, UniProt P10276).
T1 sequence (P10276 1-462): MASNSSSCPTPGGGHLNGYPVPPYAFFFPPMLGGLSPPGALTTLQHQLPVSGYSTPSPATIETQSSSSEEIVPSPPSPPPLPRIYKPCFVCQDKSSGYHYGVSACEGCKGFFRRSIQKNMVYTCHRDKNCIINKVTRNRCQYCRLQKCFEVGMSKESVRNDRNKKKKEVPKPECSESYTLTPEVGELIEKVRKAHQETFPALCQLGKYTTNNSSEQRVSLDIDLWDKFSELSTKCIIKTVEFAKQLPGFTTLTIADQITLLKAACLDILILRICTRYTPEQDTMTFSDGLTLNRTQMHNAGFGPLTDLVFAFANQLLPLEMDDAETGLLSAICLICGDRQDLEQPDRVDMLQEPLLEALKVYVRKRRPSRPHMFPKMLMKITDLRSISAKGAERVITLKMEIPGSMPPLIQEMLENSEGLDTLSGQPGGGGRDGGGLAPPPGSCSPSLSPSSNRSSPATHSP
In words: ligand binding assay, RARα. The following applies: second entry of cell, read-out: RAR Bind. Ki (nM) α. From the text: (§1) A holoreceptor transactivation assay and a ligand binding assay which measure the antagonist/agonist like activity of the compounds of the invention, or their ability to bind to the several retinoid receptor subtypes, respectively, are described in published PCT Application No. WO WO93/11755 (particularly on pages 30-33 and 37-41) published on Jun. 24, 1993, the specification of which is also incorporated herein by reference. A detailed experimental procedure for holoreceptor transactivations has been described by Heyman et al. Cell 68, 397-406, (1992); Allegretto et al. J. Biol. Chem. 268, 26625-26633, and Mangelsdorf et al. The Retinoids: Biology, Chemistry and Medicine, pp 319-349, Raven Press Ltd., New York, which are expressly incorporated herein by reference. The results obtained in this assay are expressed in EC50 numbers, as they are also in the chimeric receptor transactivation assay. The results of ligand binding assay are expressed in Kd numbers. (See Cheng et al. Biochemical Pharmacology Vol. 22 pp 3099-3108, expressly incorporated herein by reference.)

The next test addresses T2, RXRγ (UniProt P28705).
T2 sequence (P28705 1-463): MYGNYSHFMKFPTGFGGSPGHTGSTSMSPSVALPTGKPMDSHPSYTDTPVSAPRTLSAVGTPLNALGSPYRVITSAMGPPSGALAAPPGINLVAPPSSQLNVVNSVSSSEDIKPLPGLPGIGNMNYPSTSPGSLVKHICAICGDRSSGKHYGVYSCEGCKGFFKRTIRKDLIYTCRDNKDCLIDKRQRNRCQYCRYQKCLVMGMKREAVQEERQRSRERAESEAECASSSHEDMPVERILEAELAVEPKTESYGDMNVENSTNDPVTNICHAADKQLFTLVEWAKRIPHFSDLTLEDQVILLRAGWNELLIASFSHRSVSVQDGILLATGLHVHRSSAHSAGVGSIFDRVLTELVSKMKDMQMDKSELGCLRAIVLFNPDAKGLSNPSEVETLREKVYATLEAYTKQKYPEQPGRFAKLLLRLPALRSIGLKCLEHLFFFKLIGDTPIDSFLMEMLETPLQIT
Kind of test: ligand binding assay, RXRγ. Set-up: other: RXRγ; last entry of cell. The following applies: last entry of cell, read-out: RXR Bind Ki (nM) γ.
Source text: as §1

In a further test the target is T3, RARγ (Homo sapiens, UniProt P13631).
T3 sequence (P13631 1-454): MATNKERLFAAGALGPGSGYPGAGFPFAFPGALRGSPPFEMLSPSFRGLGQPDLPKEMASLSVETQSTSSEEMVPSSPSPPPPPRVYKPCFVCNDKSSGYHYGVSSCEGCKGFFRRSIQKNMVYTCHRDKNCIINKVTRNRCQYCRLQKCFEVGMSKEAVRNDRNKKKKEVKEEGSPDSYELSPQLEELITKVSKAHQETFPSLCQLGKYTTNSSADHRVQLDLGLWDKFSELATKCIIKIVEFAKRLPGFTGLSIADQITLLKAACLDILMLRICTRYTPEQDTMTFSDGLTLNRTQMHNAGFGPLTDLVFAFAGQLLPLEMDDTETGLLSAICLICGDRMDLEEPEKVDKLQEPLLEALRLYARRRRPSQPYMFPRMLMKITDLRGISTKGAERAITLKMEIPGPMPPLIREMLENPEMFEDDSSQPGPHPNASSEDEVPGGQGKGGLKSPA
In words: ligand binding assay, RARγ. The following applies: second entry of cell, read-out: RAR Bind. Ki (nM) γ.
Source text: as §1

The target of another test is T4, RXRα (Homo sapiens, UniProt P19793).
T4 sequence (P19793 1-462): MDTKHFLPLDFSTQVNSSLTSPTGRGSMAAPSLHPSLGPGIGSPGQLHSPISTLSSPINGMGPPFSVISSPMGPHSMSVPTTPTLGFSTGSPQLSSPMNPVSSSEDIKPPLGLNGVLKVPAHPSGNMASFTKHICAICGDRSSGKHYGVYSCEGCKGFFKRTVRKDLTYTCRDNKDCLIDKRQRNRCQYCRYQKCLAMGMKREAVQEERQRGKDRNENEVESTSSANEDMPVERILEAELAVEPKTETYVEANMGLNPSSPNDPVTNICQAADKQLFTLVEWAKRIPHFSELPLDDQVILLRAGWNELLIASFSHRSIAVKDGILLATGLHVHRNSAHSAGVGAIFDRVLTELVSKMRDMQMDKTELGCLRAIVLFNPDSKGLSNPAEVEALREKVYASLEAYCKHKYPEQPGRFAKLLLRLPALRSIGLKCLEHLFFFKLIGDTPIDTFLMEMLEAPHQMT
In words: ligand binding assay, RXRα. The following applies: last entry of cell, read-out: RXR Bind Ki (nM) α.
Source text: as §1

The record followed here is patent US6720423B2, “Dihydrobenzofuran and dihydrobenzothiophene 2,4-pentadienoic acid derivatives having selective activity for retinoid X (RXR) receptors” (Allergan, Inc., priority 2002, dated 2004).

On to `CC(/C=C/[C@@H]1C[C@]1(C)c1cc(-c2ccccc2C)c2c(c1)C(C)(C)CO2)=C\C(=O)O` [Compound 26, 5-[(1S,2S)-2-(3,3-Dimethyl-7-o-tolyl-2,3-dihydro-benzofuran-5-yl)-2-methyl-cyclopropyl]-3-methyl-penta-2E,4E-dienoic acid], for which the Ki on RARα was above 10000 nM; at RXRγ, 6.1 nM; on RARγ, above 10000 nM; on RXRα it was 1.2 nM.

`CC(/C=C/[C@@H]1C[C@]1(C)c1cc(-c2c(C)cccc2C)c2c(c1)C(C)(C)CO2)=C\C(=O)O` [Compound 24, 5-{(1 S 2S)-2-[7-(2,6-Dimethyl-phenyl)-3,3-dimethyl-2,3-dihydro-benzofuran-5-yl]-2-methyl-cyclopropyl}-3-methyl-penta-2E,4E-dienoic acid]: the Ki on RARα was above 10000 nM; at RXRγ, 4.8 nM; at RARγ, above 10000 nM; at RXRα it was 0.7 nM.

With `CCCCC(O)CCc1cc([C@@]2(C)C[C@H]2/C=C/C(C)=C/C(=O)O)cc2c1OCC2(C)C` (stereo partly drawn) [Compound 38, (E)-3-((E)-2-{(1S,2S)-2-[7-(3-Hydroxy-heptyl)-3,3-dimethyl-2,3-dihydro-benzofuran-5-yl]-2-methyl-cyclopropyl}-vinyl)-but-2-enoic acid], the Ki at RARα was above 10000 nM; on RXRγ, 283 nM; at RARγ, above 10000 nM; on RXRα it was 306 nM.

Take `CC(/C=C/[C@@H]1C[C@]1(C)c1cc(-c2ccccc2)c2c(c1)C(C)(C)CO2)=C\C(=O)O` [Compound 22, 6S,7S)-7-[5-(3,3-Dimethyl-7-phenyl-2,3-dihydro-benzofuranyl)1-6,7-methano-3-methyl-octa-2E,4E-dienoic acid]: the Ki on RARα is above 10000 nM; on RXRγ, 6.2 nM; at RARγ, above 5260 nM; on RXRα, 2.3 nM.

Take `CC(/C=C/[C@@H]1C[C@@H]1c1ccc2c(c1)C(C)(C)CO2)=C\C(=O)O` [Compound 36, (E)-3-{(E)-2-F[(1S,2S)-2-(3,3-Dimethyl-2,3-dihydro-benzofuran-5-yl)-cyclopropyl]-vinyl}-but-2-enoic acid]: the Ki at RARα was above 10000 nM; at RXRγ it was 602 nM; at RARγ, above 10000 nM; at RXRα, 114 nM.

A word on the Ki: it is the equilibrium dissociation constant of an inhibitor or competing ligand from its target.
